Results published in publication PMC10721329, “Quisinostat is a brain-penetrant radiosensitizer in glioblastoma” (JCI Insight, 2023).
“And” between values parts separate entries of the source, which are not always exact repeats. Equal values may be shown once.

Assays:
Test in all cases: CellTiter-Glo dose-response cell viability assay
Type in all cases: cell-based, human
[1] = system: BT145 patient-derived GSC line; details: no IR
Protocol: (§1) QST (JNJ-26481585) is a second-generation hydroxamic acid harboring remarkable selectivity toward class I HDACs, with a biochemical IC50 of 0.1 nM for HDAC1 ([13]). […] To determine the cytotoxic effects of QST, we performed a dose-titration cell viability assay in 7 patient-derived GSC lines (BT145, GB187, GB239, GB282, GB71, GB82, and GB126) and 1 long-term serum-grown human GBM cell line (U87). Because GBMs display a high degree of intratumoral heterogeneity, we used GSCs derived from both primary and recurrent GBMs that harbored distinct genetic mutations or aberrations, growth rates, MGMT promoter methylation status, and gene expression profiles (Supplemental Figure 1; supplemental material available online with this article; https://doi.org/10.1172/jci.insight.167081DS1). Cell lines were treated with various concentrations of QST (10–1000 nM), and cell viability was measured 3–5 days later (Figure 1, A and B). […] Treatment with QST at the IC50 induced significant inhibition of proliferation (Ki67) and an increase in programmed cell death (cleaved caspase 3) in 2 different GSC lines (Figure 1, C and D). Additional analyses confirmed that QST induces apoptosis after short-term treatment through increased staining of the apoptotic marker annexin V (Figure 2A) and cell cycle arrest (in G2- or S-phase; Figure 2B and Supplemental Figure 1B).
(§2) GSCs were seeded in laminin-coated tissue culture–treated 96-well plates (clear bottom, white plate; Corning) at a density of 1000–5000 cells per well (cell line dependent) in GSC media. U87-MG were seeded using their normal growth conditions without laminin (10% bovine calf serum in DMEM). All cells were incubated at 37°C and allowed to adhere overnight. The next day, cells were treated with incremental concentrations of QST (Selleckchem; 0, 10, 25, 50, 100, 250, 500, and 1000 nM) diluted in media. Cells treated without QST were treated with DMSO diluted in media. Following treatment with QST, cells were grown for 3 to 5 days (cell line dependent), and cell viability was measured and quantified. All cell viability measurements were performed using the CellTiter-Glo luminescent cell viability assay (Promega) following the manufacturer’s instructions. For the sulforhodamine B colorimetric assay for cytotoxicity, the protocol was performed as described elsewhere ([33]). All cell viability results represent the mean of at least 3 biological replicates, each containing 3 technical replicates.

[2] = system: GB282 patient-derived GSC line
Protocol: as §1, §2

[3] = system: GB126 patient-derived GSC line
Protocol: as §1, §2

[4] = system: GB82 patient-derived GSC line
Protocol: as §1, §2

[5] = Homo sapiens, QST 100 nM (log[nM] 2), read-out: Cell viability (fraction of DMSO control)
[6] = Homo sapiens, QST 250 nM (log[nM] 2.39794), read-out: Cell viability (fraction of DMSO control)
[7] = Homo sapiens, QST 500 nM (log[nM] 2.69897), read-out: Cell viability (fraction of DMSO control)
[8] = Homo sapiens, QST 1000 nM (log[nM] 3), read-out: Cell viability (fraction of DMSO control)

For `Cn1cc(CNCC2CCN(c3ncc(C(=O)NO)cn3)CC2)c2ccccc21` [QST, quisinostat], the viability at 0.1 µM [1, 5] was 34.2%, the viability at 0.25 µM [1, 6] was 25.7% and the viability at 0.5 µM [1, 7] was 18.6%. For the same compound, the viability at 1 µM [1, 8] was 13%, the “Cell viability (fraction of DMSO control)” value ([1]; QST 10 nM (log[nM] 1)) was 0.7896 and 0.7644 and the “Cell viability (fraction of DMSO control)” value ([1]; QST 25 nM (log[nM] 1.39794)) was 0.7548 and 0.7039. The “Cell viability (fraction of DMSO control)” value ([1]; QST 50 nM (log[nM] 1.69897)) was 0.4986 and 0.5266, the “Cell viability (fraction of DMSO control)” value ([1]; QST 100 nM (log[nM] 2)) was 0.3524 and 0.2775 and the “Cell viability (fraction of DMSO control)” value ([1]; QST 250 nM (log[nM] 2.39794)) was 0.3528 and 0.3396. For the same compound, the “Cell viability (fraction of DMSO control)” value ([1]; QST 500 nM (log[nM] 2.69897)) was 0.2416 and 0.229, the “Cell viability (fraction of DMSO control)” value ([1]; QST 1000 nM (log[nM] 3)) was 0.1715 and the “Cell viability (fraction of DMSO control)” value ([2]; GB282xTdT, QST 10 nM (log[nM] 1)) was 0.8875 and 0.8957. For the same compound, the “Cell viability (fraction of DMSO control)” value ([2]; GB282xTdT, QST 25 nM (log[nM] 1.39794)) was 0.7531 and 0.7488, the “Cell viability (fraction of DMSO control)” value ([2]; GB282xTdT, QST 50 nM (log[nM] 1.69897)) was 0.6063 and 0.5741 and the “Cell viability (fraction of DMSO control)” value ([2]; GB282xTdT, QST 100 nM (log[nM] 2)) was 0.3901 and 0.3391. The “Cell viability (fraction of DMSO control)” value ([2]; GB282xTdT, QST 250 nM (log[nM] 2.39794)) was 0.1846 and 0.1521, the “Cell viability (fraction of DMSO control)” value ([2]; GB282xTdT, QST 500 nM (log[nM] 2.69897)) was 0.1138 and 0.08263 and the “Cell viability (fraction of DMSO control)” value ([2]; GB282xTdT, QST 1000 nM (log[nM] 3)) was 0.07483 and 0.05455. The viability at 0.01 µM ([2]; Homo sapiens, GB282xTdT, QST 10 nM (log[nM] 1), read-out: Cell viability (fraction of DMSO control)) was 98.4%, the viability at 0.025 µM ([2]; Homo sapiens, GB282xTdT, QST 25 nM (log[nM] 1.39794), read-out: Cell viability (fraction of DMSO control)) was 84.2% and the viability at 0.05 µM ([2]; Homo sapiens, GB282xTdT, QST 50 nM (log[nM] 1.69897), read-out: Cell viability (fraction of DMSO control)) was 68%. For the same compound, the viability at 0.1 µM ([2]; Homo sapiens, GB282xTdT, QST 100 nM (log[nM] 2), read-out: Cell viability (fraction of DMSO control)) was 43.8%, the viability at 0.25 µM ([2]; Homo sapiens, GB282xTdT, QST 250 nM (log[nM] 2.39794), read-out: Cell viability (fraction of DMSO control)) was 22% and the viability at 0.5 µM ([2]; Homo sapiens, GB282xTdT, QST 500 nM (log[nM] 2.69897), read-out: Cell viability (fraction of DMSO control)) was 13.2%. For the same compound, the viability at 1 µM ([2]; Homo sapiens, GB282xTdT, QST 1000 nM (log[nM] 3), read-out: Cell viability (fraction of DMSO control)) was 8.37%, the IC50 ([2]; Homo sapiens, GB282, 3-5 days) was 66 nM and the “Cell viability (fraction of DMSO control)” value ([3]; GB126 (GB126xTdT), QST 10 nM (log[nM] 1), no IR) was 0.8102 and 0.8005. The “Cell viability (fraction of DMSO control)” value ([3]; GB126 (GB126xTdT), QST 25 nM (log[nM] 1.39794), no IR) was 0.6353 and 0.6191, the “Cell viability (fraction of DMSO control)” value ([3]; GB126 (GB126xTdT), QST 50 nM (log[nM] 1.69897), no IR) was 0.4839 and 0.5154 and the “Cell viability (fraction of DMSO control)” value ([3]; GB126 (GB126xTdT), QST 100 nM (log[nM] 2), no IR) was 0.3119 and 0.4774. For the same compound, the viability at 0.01 µM ([3]; Homo sapiens, GB126 (GB126xTdT), QST 10 nM (log[nM] 1), no IR, read-out: Cell viability (fraction of DMSO control)) was 79.2%, the viability at 0.025 µM ([3]; Homo sapiens, GB126 (GB126xTdT), QST 25 nM (log[nM] 1.39794), no IR, read-out: Cell viability (fraction of DMSO control)) was 66.8% and the viability at 0.05 µM ([3]; Homo sapiens, GB126 (GB126xTdT), QST 50 nM (log[nM] 1.69897), no IR, read-out: Cell viability (fraction of DMSO control)) was 57.6%. It also gave a viability at 0.1 µM ([3]; Homo sapiens, GB126 (GB126xTdT), QST 100 nM (log[nM] 2), no IR, read-out: Cell viability (fraction of DMSO control)) of 44.3%, an IC50 ([3]; Homo sapiens, GB126, 3-5 days) of 86 nM and an IC50 ([4]; Homo sapiens, 3-5 days) of 65 nM. For the same compound, the viability at 0.01 µM ([4]; Homo sapiens, QST 10 nM (log[nM] 1), read-out: Cell viability (fraction of DMSO control)) was 78.8%, the viability at 0.025 µM ([4]; Homo sapiens, QST 25 nM (log[nM] 1.39794), read-out: Cell viability (fraction of DMSO control)) was 77.1% and the viability at 0.05 µM ([4]; Homo sapiens, QST 50 nM (log[nM] 1.69897), read-out: Cell viability (fraction of DMSO control)) was 66.9%. For the same compound, the viability at 0.1 µM [4, 5] was 51.1%, the viability at 0.25 µM [4, 6] was 37.7% and the viability at 0.5 µM [4, 7] was 30.8%. The viability at 1 µM [4, 8] was 26.5%, the “Cell viability (fraction of DMSO control)” value ([4]; QST 10 nM (log[nM] 1)) was 0.7668 and 0.8052 and the “Cell viability (fraction of DMSO control)” value ([4]; QST 25 nM (log[nM] 1.39794)) was 0.6655 and 0.6833. The “Cell viability (fraction of DMSO control)” value ([4]; QST 50 nM (log[nM] 1.69897)) was 0.651 and 0.6783, the “Cell viability (fraction of DMSO control)” value ([4]; QST 100 nM (log[nM] 2)) was 0.4804 and 0.526 and the “Cell viability (fraction of DMSO control)” value ([4]; QST 250 nM (log[nM] 2.39794)) was 0.3237 and 0.3695. The “Cell viability (fraction of DMSO control)” value ([4]; QST 500 nM (log[nM] 2.69897)) was 0.2733 and 0.2932 and the “Cell viability (fraction of DMSO control)” value ([4]; QST 1000 nM (log[nM] 3)) was 0.2807 and 0.2449.
